# Experimental data from ChEMBL document CHEMBL6115007, “Synthesis and in vitro and in vivo evaluation of novel bivalent quinolines as antitumor agents via targeting autophagy in cervical cancer” (Eur J Med Chem, 2025).
# Active and inactive are the calls of the source. The calls are words filed in the database; no cut-off is given here.
# Columns and labels:
# Ca-Ski [1] = assay: Antiproliferative activity against ATG7 deficient human Ca Ski cells assessed as inhibition of cell viability incubated for 24 hrs by CCK8 assay; assay type: functional, cell-based
# SiHa [2] = assay: Induction of morphological changes in human SiHa cells assessed as decrease in cell adherence to culture dish at 0.5 to 2 uM by microphotographic analysis; assay type: functional, cell-based; settings: dose 0.5-2 µM
# HeLa [3] = assay: Upregulation of autophagy pathway related gene expression in human HeLa cells at 1.2 uM incubated for 24 hrs by heat-map analysis; assay type: functional, cell-based
# Ca-Ski [4] = assay: Induction of autophagy in human Ca Ski cells transfected with mRFP-GFP-LC3 plasmid assessed as stable RFP fluorescence at 25 uM incubated for 24 hrs by DAPI staining based fluorescence confocal microscopic analysis; assay type: functional, cell-based
# Ca-Ski [5] = assay: Induction of apoptosis in human Ca Ski cells assessed as necrotic cells at 1 uM preincubated with Z-VAD-FMK for 1 hrs followed by compound addition and measured after 24 hrs by Annexin V-FITC/PI staining based flow cytometric analysis (reference value: 1.54 %); assay type: functional
# HeLa [6] = assay: Effect on cleaved PARP expression level in Bax deficient human HeLa cells at 0.6 to 1.2 uM incubated for 24 hrs by Western blot analysis; assay type: functional, cell-based; settings: dose 0.6-1.2 µM
# Ca-Ski [7] = assay: Induction of apoptosis in human Ca Ski cells assessed as late apoptotic cells at 1 uM incubated for 24 hrs by Annexin V-FITC/PI staining based flow cytometric analysis (reference value: 5.33 %); assay type: functional
# Ca-Ski [8] = assay: Induction of morphological changes in human Ca Ski cells assessed as increase in appearance of round cells at 0.5 to 2 uM by microphotographic analysis; assay type: functional, cell-based; settings: dose 0.5-2 µM
# HeLa [9] = assay: Induction of apoptosis in human HeLa cells assessed as viable cells at 1.2 uM preincubated with Z-VAD-FMK for 1 hrs followed by compound addition and measured after 24 hrs by Annexin V-FITC/PI staining based flow cytometric analysis (reference value: 95.8 %); assay type: functional; settings: read-out: Activity
# HeLa [10] = assay: Antiproliferative activity against ATG7 deficient human HeLa cells assessed as inhibition of cell viability incubated for 24 hrs by CCK8 assay; assay type: functional, cell-based
# HeLa [11] = assay: Induction of autophagy in human HeLa cells transfected with mRFP-GFP-LC3 plasmid assessed as stable RFP fluorescence at 0.4 to 0.8 uM incubated for 24 hrs by DAPI staining based fluorescence confocal microscopic analysis; assay type: functional, cell-based; settings: dose 0.4-0.8 µM
# Ca-Ski [12] = assay: Effect on cleaved PARP expression level in Bax deficient human Ca Ski cells at 0.5 to 1 uM incubated for 24 hrs by Western blot analysis; assay type: functional, cell-based; settings: dose 0.5-1 µM
# Ca-Ski [13] = assay: Induction of apoptosis in human Ca Ski cells assessed as necrotic cells at 1 uM incubated for 24 hrs by Annexin V-FITC/PI staining based flow cytometric analysis (reference value: 3.15 %); assay type: functional
# Ca-Ski [14] = assay: Induction of autophagy in human Ca Ski cells transfected with mRFP-GFP-LC3 plasmid assessed as stable RFP fluorescence at 0.3 to 0.6 uM incubated for 24 hrs by DAPI staining based fluorescence confocal microscopic analysis; assay type: functional, cell-based; settings: dose 0.3-0.6 µM
# Ca-Ski [15] = assay: Antiproliferative activity against p53 deficient human Ca Ski cells assessed as inhibition of cell viability incubated for 24 hrs by CCK8 assay; assay type: functional, cell-based
# SiHa [16] = assay: Induction of morphological changes in human SiHa cells assessed as increase in inflated cell appearance at 0.5 to 2 uM by microphotographic analysis; assay type: functional, cell-based; settings: dose 0.5-2 µM
# Ca-Ski [17] = assay: Inhibition of colony formation in human Ca Ski cells assessed as reduction in colony forming unit count at 0.1 to 0.4 uM incubated for 24 hrs by crystal violet staining based analysis; assay type: functional, cell-based; settings: dose 0.1-0.4 µM
# HeLa [18] = assay: Effect on ATG16L1 protein level in human HeLa cells at 0.6 to 1.2 uM incubated for 24 hrs by Western blot analysis; assay type: functional, cell-based; settings: dose 0.6-1.2 µM
# [19] = Toxicity in female BALB/c mouse xenografted with human HeLa cells assessed as effect on liver at 4 to 8 mg/kg administered every four days and measured after 26 days by H and E staining based analysis; assay type: organism-based; settings: in vivo, 624 h, dose 4-8 mg/kg, time 26 day
# Ca-Ski [20] = assay: Effect on caspase 3 expression level in Bax deficient human Ca Ski cells at 0.5 to 1 uM incubated for 24 hrs by Western blot analysis; assay type: functional, cell-based; settings: dose 0.5-1 µM
# Ca-Ski [21] = assay: Induction of autophagy in human Ca Ski cells transfected with mRFP-GFP-LC3 plasmid assessed as appearance of RFP puncta clusters as aggregates in cytoplasm at 25 uM incubated for 24 hrs by DAPI staining based fluorescence confocal microscopic analysis; assay type: functional, cell-based
# HeLa [22] = assay: Induction of apoptosis in human HeLa cells assessed as early apoptotic cells at 1.2 uM preincubated with Z-VAD-FMK for 1 hrs followed by compound addition and measured after 24 hrs by Annexin V-FITC/PI staining based flow cytometric analysis (reference value: 0.96 %); assay type: functional
# HeLa [23] = assay: Induction of autophagy in human HeLa cells assessed as increase in LC3-I conversion to LC3-II at 0.3 to 1.2 microM incubated for 24 hrs by Western blot analysis; assay type: functional, cell-based; settings: dose 0.3-1.2 µM
# HeLa [24] = assay: Effect on caspase 3 expression level in Bax deficient human HeLa cells at 0.6 to 1.2 uM incubated for 24 hrs by Western blot analysis; assay type: functional, cell-based; settings: dose 0.6-1.2 µM
# HeLa [25] = assay: Antitumor activity against human HeLa cells xenografted in female BALB/c mouse assessed as inhibition of tumor progression at 4 to 8 mg/kg administered every four days and measured after 26 days by imaging analysis; assay type: functional, organism-based; settings: dose 4-8 mg/kg, time 26.0 day
# HeLa [26] = assay: Effect on caspase 3 expression level in p53 deficient human HeLa cells at 0.6 to 1.2 uM incubated for 24 hrs by Western blot analysis; assay type: functional, cell-based; settings: dose 0.6-1.2 µM
# SiHa [27] = assay: Inhibition of colony formation in human SiHa cells assessed as reduction in colony forming unit count at 0.1 to 0.4 uM incubated for 24 hrs by crystal violet staining based analysis; assay type: functional, cell-based; settings: dose 0.1-0.4 µM
# [28] = Toxicity in female BALB/c mouse xenografted with human HeLa cells assessed as effect on platelet level at 4 to 8 mg/kg administered every four days and measured after 26 days; assay type: organism-based; settings: in vivo, 624 h, dose 4-8 mg/kg, time 26 day
# HeLa [29] = assay: Induction of ferroptosis in human HeLa cells assessed as increase in lipid ROS level by measuring rightward shift in fluorescence intensity at 0.6 uM measured after 24 hrs by C11-BODIPY-581/591 staining based flow cytometric analysis; assay type: functional, cell-based
# Ca-Ski [30] = assay: Induction of autophagy in ATG5 deficient human Ca Ski cells assessed as increase in LC3-II expression at 0.5 to 1 uM incubated for 24 hrs by Western blot analysis; assay type: functional, cell-based; settings: dose 0.5-1 µM
# HeLa [31] = assay: Induction of apoptosis in human HeLa cells assessed as necrotic cells at 1.2 uM preincubated with Z-VAD-FMK for 1 hrs followed by compound addition and measured after 24 hrs by Annexin V-FITC/PI staining based flow cytometric analysis (reference value: 2.16 %); assay type: functional
# HeLa [32] = assay: Induction of autophagy pathway in human HeLa cells at 1.2 uM incubated for 24 hrs by GSEA analysis; assay type: functional, cell-based
# HeLa [33] = assay: Induction of autophagy in human HeLa cells transfected with mRFP-GFP-LC3 plasmid assessed as appearance of RFP puncta clusters as aggregates in cytoplasm at 0.4 to 0.8 uM incubated for 24 hrs by DAPI staining based fluorescence confocal microscopic analysis; assay type: functional, cell-based; settings: dose 0.4-0.8 µM
smiles,measurement,setting,value
COc1cccc(Nc2ccnc3cc(OCCCCCOc4ccc5c(Nc6cccc(OC)c6)ccnc5c4)ccc23)c1,IC50,Ca-Ski [1],2890 nM
same,Activity,SiHa [2],Active
same,Activity,HeLa [3],Active
same,Activity,Ca-Ski [4],Active
same,Activity,Ca-Ski [5],1.7%
same,Activity,HeLa [6],inactive
same,Activity,Ca-Ski [7],7.8%
same,Activity,Ca-Ski [8],Active
same,viability at 1.2 µM,HeLa [9],93.6%
same,IC50,HeLa [10],2310 nM
same,Activity,HeLa [11],Active
same,Activity,Ca-Ski [12],inactive
same,Activity,Ca-Ski [13],2.98%
same,Activity,Ca-Ski [14],Active
same,IC50,Ca-Ski [15],872 nM
same,Activity,SiHa [16],Active
same,inhibition,Ca-Ski [17],Active
same,Activity,HeLa [18],inactive
same,Activity,[19],Non-toxic
same,Activity,Ca-Ski [20],inactive
same,Activity,Ca-Ski [21],Active
same,Activity,HeLa [22],1.22%
same,Activity,HeLa [23],Active
same,Activity,HeLa [24],inactive
same,Activity,HeLa [25],Active
same,Activity,HeLa [26],inactive
same,inhibition,SiHa [27],Active
same,Activity,[28],Non-toxic
same,Activity,HeLa [29],inactive
same,Activity,Ca-Ski [30],inactive
same,Activity,HeLa [31],1.49%
same,Activity,HeLa [32],Active
same,Activity,HeLa [33],Active
